According to PubChem BioAssay AID1996:
Converted amounts (≈) assume the structure as drawn.

settings: buffer; pH 7.4; 200.0 µM

Row | SMILES | solubility kinetic [µg/mL]
1 | CSc1ncccc1C(=O)N1CCN(S(=O)(=O)c2ccc3c(c2)OCCO3)CC1 | > 65.3
2 | CCCCCCCCC1CC(C(=O)Nc2ccccc2)C(=O)O1 (centres undefined) | < 0.7
3 | CCN1CCN(c2ccc(NC(=O)COc3ccc(Cl)cc3C)cc2)CC1 | 5.1 (≈ 13.1 µM)
4 | CC(C)OC(=O)c1ccc2nc3ccccc3nc2c1 | 1 (≈ 3.76 µM)
5 | Cc1c(C(C)(C)C)s/c(=N/S(=O)(=O)c2ccccc2)n1C | 43.7 (≈ 135 µM)
6 | S=c1[nH]ccn1CCc1ccccc1 | 22.7 (≈ 111 µM)
7 | Cc1ccn2c(NC3CCCC3)c(-c3ccccn3)nc2c1 | 30.6 (≈ 105 µM)
8 | O=C(COC(=O)COc1ccccc1)Nc1ccc(Br)cc1F | 12.3 (≈ 32.2 µM)
9 | N#CCCN(Cc1cccnc1)C(=S)NCc1ccco1 | > 45.1
10 | Cn1c(=O)oc2cc(NC(=O)CCl)ccc21 | 24.2 (≈ 101 µM)
11 | O=C(Cc1ccccc1)N1CCN(c2ccccc2F)CC1 | > 44.8
12 | CN1CCN2c3ccccc3CC3(C(=O)N(C)C(=O)N(C)C3=O)C2C1 (centres undefined) | > 51.4
13 | CC(=O)NC(Cc1ccc(O)cc1)C(=O)NN (centres undefined) | > 35.6
14 | O=C(CN1CCOCC1)Nc1ccc(F)cc1 | > 35.7
15 | Cc1ccc2nc(N3C(=O)CNC3=S)sc2c1 | 11.9 (≈ 45.2 µM)
16 | Cc1cc(F)ccc1S(=O)(=O)Nc1ccc(C(=O)N2CCCCC2)cc1 | > 56.5
17 | CC(C)(C)OC(=O)N1CCC(C(=O)NCC2CCCO2)CC1 (centres undefined) | > 46.9
18 | CS(=O)(=O)N1CCN=C1SCc1ccccc1 | > 40.6
19 | Cc1ccc(N2CCN(C(=O)NC3CCCCC3)CC2C)cc1 (centres undefined) | > 47.3
20 | Cl.NC(N)=Nc1nc(-c2ccccc2)c2cc(Cl)ccc2n1 | 9.7
21 | N#Cc1cccc(C#N)c1Oc1ccc(S(=O)(=O)Nc2ccccc2)cc1 | 18.4 (≈ 49 µM)
22 | Cc1cccc(-c2noc(-c3ccno3)n2)c1 | 4.8 (≈ 21.1 µM)
23 | COc1ccc2c(c1OC)C(=O)N1C2SC(C)(C)[C@H]1C(=O)NC1CC1 (some centres undefined) | > 54.4
24 | Cc1cc(C(=O)Nc2ccncc2)ccc1[N+](=O)[O-] | 18.4 (≈ 71.5 µM)

Row | SMILES | solubility kinetic [µg/mL]
25 | CC(=O)c1ccc(S(=O)(=O)Nc2ccc(S(=O)(=O)N3CCCCC3)cc2)cc1 | > 63.4
26 | COc1cc(OC)cc(C(=O)NN2CCOCC2)c1 | > 39.9
27 | CCC(OC(=O)c1nsc(Cl)c1Cl)C(=O)NCC1CCCO1 (centres undefined) | 52.8 (≈ 144 µM)
28 | O=C(O)CN1C(=O)C(=O)N(Cc2ccc(Cl)c(Cl)c2)C1=O | 46.1 (≈ 139 µM)
29 | O=S(=O)(Cc1cc(-c2ccccc2Cl)no1)c1ccccc1 | 1.8 (≈ 5.39 µM)
30 | COc1ccc(C(=O)COC(=O)CNC(=O)c2ccc(C)s2)c(OC)c1 | > 56.6
31 | O=C(CSc1nc(C2CC2)nc2ccccc12)Nc1cccc(O)c1 | < 0.3
32 | OC(CN1CCOCC1)Cn1cnc2ccccc21 (centres undefined) | > 39.2
33 | Cc1cc(C)c2c(N)c(C(=O)Nc3ccc([N+](=O)[O-])cc3)sc2n1 | < 0.2
34 | Nc1nccc(-c2cccs2)n1 | > 26.6
35 | CC1=C([N+](=O)[O-])C(c2ccccc2Cl)NC(=O)N1 (centres undefined) | > 40.2
36 | COc1ccc(S(=O)(=O)n2c([N+](=O)[O-])cnc2C)c(C)c1C | 45.2 (≈ 139 µM)
37 | CC(O)Cn1cnc2c1c(=O)n(C)c(=O)n2C (centres undefined) | > 35.7
38 | O=C1CCCC2=C1C(c1cccs1)CC(=O)N2c1ccc(F)cc1 (centres undefined) | 40.7 (≈ 119 µM)
39 | COC(=O)c1sccc1NC(=O)NC1CCCCC1 | 23.8 (≈ 84.3 µM)
40 | O=C(Cn1c(=O)oc2ccccc21)Nc1ccc(Br)cc1 | 2.1 (≈ 6.05 µM)
41 | COc1ccc(C(=O)NCCc2c[nH]c3ccccc23)cc1[N+](=O)[O-] | 10.8 (≈ 31.8 µM)
42 | Cc1ccccc1NC(=O)c1c([N+](=O)[O-])cnn1C | > 39
43 | Cc1ccccc1C(=O)NCCCNC(=O)c1ccco1 | 42.9 (≈ 150 µM)
44 | CC(=O)Oc1ccc(C(=O)Nc2ccc3c(c2)OCCO3)cc1 | 38.9 (≈ 124 µM)
45 | CC(=O)Oc1ccccc1-c1nc(/C=C/c2ccccc2)no1 | < 0.3
46 | CNC(=S)Nc1ccc(C)c(NC(=S)NC)c1 | > 40.3
47 | O=C(NCc1ccccc1Cl)c1cc(=O)[nH]c2ccccc12 | 7.4 (≈ 23.7 µM)
48 | O=C(COC(=O)c1ccc(OC(F)F)cc1)NCc1cccs1 | 35.5 (≈ 104 µM)

Row | SMILES | solubility kinetic [µg/mL]
49 | Cc1ccc(C)c(S(=O)(=O)Nc2cc(C)on2)c1 | > 39.9
50 | CCC(=NCCN1CCOCC1)c1c(O)n(C2CCCCC2)c(=O)[nH]c1=O | 52.6 (≈ 139 µM)
51 | COc1ccc(/C=C2\N=C(c3ccc(C)cc3)OC2=O)cc1 | 3.5 (≈ 11.9 µM)
52 | O=C(C[n+]1ccccc1)Nc1ccc(Oc2ccccc2)cc1.[Cl-] | > 51.1
53 | COc1ccccc1NS(=O)(=O)c1cc(NC(=O)COc2ccccc2F)ccc1N1CCOCC1 | 2.4 (≈ 4.66 µM)
54 | CNC(=O)CSc1nnc(-c2ccco2)n1-c1cc(C)ccc1C | > 51.4
55 | CSc1ncccc1C(=O)N(C)CC(=O)Nc1cccc(F)c1 | > 50
56 | Cc1onc(-c2ccccc2)c1C(=O)N(Cc1ccccn1)Cc1ccccn1 | > 57.7
57 | COc1cc(C(=O)OCCNC(=O)c2ccccc2)cc(OC)c1OC | > 53.9
58 | Cc1cc(CNC(=S)Nc2cccc(Cl)c2Cl)nn1C | > 49.4
59 | Cc1cc(C)cc(Nc2ccc(C(=O)O)cc2[N+](=O)[O-])c1 | > 42.9
60 | COc1cc(/C=C(\CCC(=O)O)c2nc3ccccc3s2)ccc1OCC(=O)Nc1c(Cl)cccc1Cl | 24.2 (≈ 43.4 µM)
61 | O=C1CC(c2ccccc2)CC(O)=C1C=NCc1ccncc1 (centres undefined) | > 46
62 | COc1cc(CNC(C)C23CC4CC(CC(C4)C2)C3)cc(OC)c1OC.Cl (centres undefined) | > 59.4
63 | Cc1c(NS(=O)(=O)c2cccs2)cccc1-c1nc2cccnc2s1 | 2.4 (≈ 6.19 µM)
64 | CNCCCC1c2ccccc2C=Cc2ccccc21.Cl | > 45
65 | O=C(O)C(c1ccccc1)N1C(=O)c2ccccc2C1=O (centres undefined) | 40.7 (≈ 145 µM)
66 | CCOc1ccccc1NC(=O)CNC(=O)Cc1ccccc1 | 46.8 (≈ 150 µM)
67 | CCOc1ccccc1NC(=S)NCCCn1ccnc1 | 42.1 (≈ 138 µM)
68 | CCc1nonc1NC(=O)c1oc2cc(C)c(C)cc2c1C | 0.3 (≈ 1 µM)
69 | Cc1ccc(-n2c(SCC(N)=O)nnc2-c2cnccn2)cc1 | > 49
70 | Cc1cccc(NC(=O)C(=O)NCCCN2CCOCC2)c1 | 41.9 (≈ 137 µM)
71 | COc1ccc(C(=O)NCc2ccc(N3CCN(C)CC3)cc2)cc1 | > 50.9
72 | CCOc1ccc(S(=O)(=O)Nc2nccs2)cc1 | > 42.7

Row | SMILES | solubility kinetic [µg/mL]
73 | O=[N+]([O-])c1ccc(NS(=O)(=O)N2CCOCC2)cc1 | > 43.1
74 | CC(=O)Nc1c(C(N)=O)oc2ccc(Cl)cc12 | > 37.9
75 | CC(=O)c1sc(-c2ccccc2)cc1NS(=O)(=O)c1ccccc1 | < 0.8
76 | NC(=O)COC(=O)c1cc([N+](=O)[O-])ccc1NCCO | > 42.5
77 | CN(C)c1ccc2c3c(ccc(N(C)C)c13)C(=O)OC2 | 36.6 (≈ 135 µM)
78 | COc1cc(C=NNC(=O)c2ccccc2-n2cccc2)ccc1O | > 50.3
79 | CC1CC1C(=O)OCC(=O)c1c(N)n(C)c(=O)n(C)c1=O (centres undefined) | > 44.3
80 | CCS(=O)(=O)c1ccc(O)c(NC(=O)/C=C/c2ccccc2)c1 | > 49.7
81 | Cc1ccc(Nc2nc(-c3ccccc3)c(CC(=O)O)s2)cc1 | > 48.7
82 | CCOC(=O)c1cnc2c(ccc3ccccc32)c1N | < 0.3
83 | CCC(NC(=O)c1ccccc1Br)c1ccccc1 (centres undefined) | > 47.7
84 | COc1ccc(NC(=O)CCN2C(=O)c3ccccc3C2=O)cc1 | 23.1 (≈ 71.2 µM)
85 | N#Cc1ccc2nc3c(nc2c1)CCCC3 | 30.2 (≈ 144 µM)
86 | CCOc1ccc(OCCn2c(=S)[nH]c3c(N)ncnc32)cc1 | 20.1 (≈ 60.7 µM)
87 | C=C(C)CN(Cc1ccccc1)C(=S)Nc1ccccc1 | 1.9 (≈ 6.41 µM)
88 | Cc1ccc(N2C(=O)C3CCC(C)(C2=O)C3(C)C)cc1C (centres undefined) | 32.3 (≈ 113 µM)
89 | CCOc1c(C)cc(S(=O)(=O)NCc2cccnc2)c(C)c1C | 45.2 (≈ 135 µM)
90 | Cc1ccc(S(=O)(=O)/N=C(/c2ccc(F)cc2)N(C)C)cc1 | > 48.1
91 | Cc1ccccc1NC(=O)NC(C)(C)CC(C)(C)C | 1.3 (≈ 4.95 µM)
92 | COc1ccc(CNc2nc3ccccc3n2C(C)C)cc1 | 5.7 (≈ 19.3 µM)
93 | Cc1ccccc1C(=O)Nc1ccnc(-c2ccncc2)n1 | 0.5 (≈ 1.72 µM)
94 | CC(C)(CO)NC(=O)C12CC3CC(CC(Br)(C3)C1)C2 | > 49.5
95 | CC1(C)C(=O)Nc2ccccc2N1C(=O)COC(=O)c1ccc([N+](=O)[O-])o1 | 12.1 (≈ 32.4 µM)
96 | CC1=[N+](C)N(c2ccccc2)C(=O)C1N=C/C=C/c1ccccc1 (centres undefined) | > 47.8

Row | SMILES | solubility kinetic [µg/mL]
97 | Cc1cc(NC(=O)CN2C(=O)NC(C)(CC(C)C)C2=O)no1 (centres undefined) | > 46.3
98 | CN(C)CCC=C1c2ccccc2CCc2ccccc21.Cl | > 47.1
99 | Cc1ccc(C2(c3ccc(C)cc3)NC(=O)N(CC(=O)NCCCN3CCCC3=O)C2=O)cc1 | > 69.4
100 | COc1ccc(N2C(=O)NC(=O)C2=O)cc1 | > 33
101 | O=C(NCCCN1CCCC1)Nc1ccc(F)cc1 | 35.2 (≈ 133 µM)
102 | CCN(Cc1cc(=O)[nH]c2ccccc12)C(=O)C(C)C | > 40.9
103 | CSc1nsc(SCC(=O)Nc2ccc(F)cc2)n1 | 39.6 (≈ 126 µM)
104 | CCc1ccc(NC(=S)N2CCCC(C(F)(F)F)C2)cc1 (centres undefined) | 6.1 (≈ 19.3 µM)
105 | CC(=O)c1c(C)[nH]c(C(=O)OCc2cc(-c3ccco3)on2)c1C | 2.5 (≈ 7.61 µM)
106 | COc1ccc(C2NC(=O)c3ccccc3N2)cc1 (centres undefined) | 33.2 (≈ 131 µM)
107 | O=C(COc1ccc(Br)cc1)N1CCc2ccccc2C1 | 20.8 (≈ 60.1 µM)
108 | Cc1ccc(CNC(=S)NC2CCCCC2)cc1 | 32.3 (≈ 123 µM)
109 | Cc1ccc(C)c(S(=O)(=O)NCCCc2ccccc2)c1 | 14.2 (≈ 46.8 µM)
110 | CCOC(=O)c1cnn(C)c1NC(=O)c1ccc(Cl)cc1Cl | > 51.3
111 | O=c1c(Cc2ccc(F)cc2)c(O)ccn1Cc1ccco1 | 33 (≈ 110 µM)
112 | CCCCN(CC(=O)NCc1ccc(F)cc1)C(=O)c1ccco1 | 48.5 (≈ 146 µM)
113 | Nc1nc(Cl)nc2c1ncn2[C@@H]1O[C@H](CO)[C@@H](O)[C@H]1O | > 45.3
114 | Cc1cccc(NC(=O)COC(=O)c2cccs2)c1C | 1.8 (≈ 6.22 µM)
115 | COC(=O)c1c(C)nc(C)c(C(=O)OC)c1-c1cccs1 | > 45.8
116 | O=C(CSc1nnc(Nc2ccccc2)s1)NC1CCS(=O)(=O)C1 (centres undefined) | > 57.7
117 | CC(C)n1cc(C(N)=S)c(=O)n(Cc2ccccc2)c1=O | 9.1 (≈ 30 µM)
118 | O=C(NCCN1CCN(c2ccccc2)CC1)Nc1ccc(Cl)cc1 | 3.7 (≈ 10.3 µM)
119 | Fc1ccccc1C1CCN(Cc2nc(COc3ccccc3)no2)C1 (centres undefined) | 12.7 (≈ 35.9 µM)
